Where two headings read alike, the source gives them in different places. Positions of bridges follow the written chain, without caps; N, C: chain ends. Non-standard residues stand in square brackets, D forms with d. Residues, ends and D or L forms follow the SMILES beside them.

Assay [1] deals with B16/F1 murine melanoma cells. Briefly: Specificity of cellular uptake (peptide blockade). It is filed as cell-based. The following applies: 0.1 μM of blocking peptide, 25° C., 120 min. On the procedure: The specificity of cell binding was determined by incubating ^99mTc-RGD-Lys-(Arg^11)CCMSH with or without non-radioactive peptides. After being washed once with binding media, B16/F1 cells in 24-well cell culture plates were incubated with approximately 200,000 cpm of HPLC purified ^99mTc-RGD-Lys-(Arg^11)CCMSH at 25° C. for 120 min (n=4) in the presence of 0.1 μM of RGD-Lys-(Arg^11)CCMSH, NDP-MSH, (Arg^11)CCMSH or RGD in 0.5 ml of binding media, respectively. The reaction media were aspirated after the incubation. The cells were rinsed twice with 0.5 ml of ice-cold pH 7.4, 0.2% BSA/0.01 M PBS and lysed in 0.5 ml of 1 N NaOH for 5 min. The activities associated with cells were measured in a gamma counter. Statistical analysis was performed using the Student's t-test for unpaired data.
The specificity of cellular uptake was determined by incubating ^99mTc-RGD-Arg-(Arg^11)CCMSH with or without non-radioactive peptides. After being washed once with binding medium, B16/F1 cells in 24-well cell culture plates were incubated with approximately 200,000 cpm of HPLC purified ^99mTc-RGD-Arg-(Arg^11)CCMSH at 25° C. for 120 min (n=3) in the presence of 0.1 μM of RGD-Arg-(Arg^11)CCMSH, (Arg^11)CCMSH, RGD or no peptide blockade in 0.5 mL of binding medium, respectively. The reaction medium was aspirated after the incubation. The cells were rinsed twice with 0.5 mL of ice-cold pH 7.4, 0.2% BSA/0.01 M PBS and lysed in 0.5 mL of 1 N NaOH for 5 min. The activities associated with cells were measured in a gamma counter.

A further assay relates to B16/F1 melanoma cells. Briefly: Clonogenic cytotoxicity. It is filed as cell-based, murine. The note with it: 6 days post the treatment; for Decrease in clonogenic survival compared to untreated group: 0.1 μM (100 nM), 3 h incubation. On the procedure:
To determine whether the replacement of the Lys linker with Arg linker affected the clonogenic cytotoxicity of the hybrid peptide, we examined the clonogenic cytotoxic effect of RGD-Arg-(Arg^11)CCMSH in B16/F1 melanoma cells according to our published procedure (17). The B16/F1 cells were seeded in a 6-well plate (200 cells/well) and incubated at 37° C. overnight. […] Control cells were only incubated in the culture medium. After the incubation, the cells were washed with PBS twice and allowed to form colonies over 6 days in the culture medium. The medium was changed every other day. After 6 days, the cells were fixed with methanol:glacial acetic acid (3:1), stained with hematoxylin and visually examined under microscope for survival. Colonies contained more than 50 cells were scored as survivors.

Assay [2] concerns the target T1, MC1 receptor (Mus musculus, UniProt Q01727).
T1 construct: host or cells: B16/F1 murine melanoma cells
The following applies: literature value (ref. 8); read-out: MC1 receptor binding affinity; cited from earlier work.

The target in assay [3] is T1, MC1 receptor. The assay can be described thus: In vitro competitive binding assay in B16/F1 melanoma cells. On the set-up: species or system murine. The note with it: competition with ^125I-(Tyr^2)-NDP-MSH, 25° C., 2 h, read-out: IC50 value (MC1 receptor binding affinity). As to the method:
The IC50 value of RGD-Lys-(Arg^11)CCMSH was determined according to our previously published procedure (27). B16/F1 cells were harvested and seeded into a 24-well cell culture plate (5×10^5/well) and incubated at 37° C. overnight. After being washed with binding media (MEM with 25 mM HEPES, pH 7.4, 0.2% BSA, 0.3 mM 1,10-phenathroline), the cells were incubated at room temperature (25° C.) for 2 h with approximately 40,000 counts per minute (cpm) of ^125I-(Tyr^2)-NDP-MSH in the presence of increasing concentrations (10^−12 to 10^−5 M) of RGD-Lys-(Arg^11)CCMSH in 0.3 ml of binding media. The reaction media were aspirated after the incubation. […] The activities associated with cells were measured in a Wallac 1480 automated gamma counter (PerkinElmer, NJ). The IC50 value for the peptide was calculated by fitting the data with nonlinear regression using Prism software (GraphPad Software, La Jolla, Calif.).
The IC50 value of RGD-Arg-(Arg^11)CCMSH was determined according to our previously published procedure (17). […] The activities associated with cells were measured in a Wallac 1480 automated gamma counter (PerkinElmer, NJ). The IC50 value for the peptide was calculated using Prism software (GraphPad Software, La Jolla, Calif.).

T1 sequence (Q01727 whole entry): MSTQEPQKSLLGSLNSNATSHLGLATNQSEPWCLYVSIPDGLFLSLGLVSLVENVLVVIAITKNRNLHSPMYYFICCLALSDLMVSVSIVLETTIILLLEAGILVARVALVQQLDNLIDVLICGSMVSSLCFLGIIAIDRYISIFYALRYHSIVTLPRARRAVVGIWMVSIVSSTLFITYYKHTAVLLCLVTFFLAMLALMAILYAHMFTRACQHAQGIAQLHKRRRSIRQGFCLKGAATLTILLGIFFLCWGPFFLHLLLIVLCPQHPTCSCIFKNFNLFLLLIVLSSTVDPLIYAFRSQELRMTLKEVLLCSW

As for “Cyclo(Arg-Gly-Asp-DPhe-Val) [RGD, reference compound]”, in assay [1], the “Decrease of cellular uptake of ^99mTc-RGD-Arg-(Arg^11)CCMSH by peptide blockade” value is given as “didn't reduce” and the “Decrease of cellular uptake of ^99mTc-RGD-Lys-(Arg^11)CCMSH by peptide blockade” value is on record as “didn't reduce”. In addition, the “Decrease in clonogenic survival compared to untreated group” value (shortened to “Decrease in clonogenic survival”) in the assay on B16/F1 melanoma cells is recorded as 7%.
For “[Cys^3,4,10, D-Phe^7, Arg^11]α-MSH3-13 [(Arg^11)CCMSH, reference compound]”, the IC50 on MC1 receptor [2] was 1.7 nM. Moreover, the “Decrease of cellular uptake of ^99mTc-RGD-Arg-(Arg^11)CCMSH by peptide blockade” value in assay [1] is on record as 78%. Besides, the “Decrease in clonogenic survival” value in the assay with B16/F1 melanoma cells came to 11%.
Take `CC(C)[C@H](NC(=O)[C@@H]1CCCN1C(=O)[C@H](CCCNC(=N)N)NC(=O)[C@H](CS)NC(=O)[C@H](Cc1c[nH]c2ccccc12)NC(=O)[C@H](CCCNC(=N)N)NC(=O)[C@@H](Cc1ccccc1)NC(=O)[C@H](Cc1c[nH]cn1)NC(=O)[C@H](CCC(=O)O)NC(=O)[C@H](CS)NC(=O)[C@H](CS)NC(=O)[C@H](CCCCN)NC(=O)[C@@H]1CC(=O)N[C@@H](CCCNC(=N)N)C(=O)NCC(=O)N[C@@H](CC(=O)O)C(=O)N[C@H](Cc2ccc(O)cc2)C(=O)N1)C(N)=O` [RGD-Lys-(Arg^11)CCMSH] (RGD[dY]DKCCEH[dF]RWCRPV-NH2; lactam N-5; C-terminus assumed): the “Decrease of clonogenic survival compared to untreated control” value in the assay on B16/F1 melanoma cells (93 μmol, single treatment (3 h incubation), unpublished preliminary studies) was determined as 65%.
As to `CC(C)[C@H](NC(=O)[C@@H]1CCCN1C(=O)[C@H](CCCNC(=N)N)NC(=O)[C@H](CS)NC(=O)[C@H](Cc1c[nH]c2ccccc12)NC(=O)[C@H](CCCNC(=N)N)NC(=O)[C@@H](Cc1ccccc1)NC(=O)[C@H](Cc1c[nH]cn1)NC(=O)[C@H](CCC(=O)O)NC(=O)[C@H](CS)NC(=O)[C@H](CS)NC(=O)[C@H](CCCNC(=N)N)NC(=O)[C@@H]1CC(=O)N[C@@H](CCCNC(=N)N)C(=O)NCC(=O)N[C@@H](CC(=O)O)C(=O)N[C@H](Cc2ccc(O)cc2)C(=O)N1)C(N)=O` [RGD-Arg-(Arg^11)CCMSH] (RGD[dY]DRCCEH[dF]RWCRPV-NH2; lactam N-5; C-terminus assumed), at MC1 receptor [3], the IC50 came to 0.7 nM. Further, in assay [1], the “Decrease of cellular uptake of ^99mTc-RGD-Arg-(Arg^11)CCMSH by peptide blockade” value was determined as 76%. The “Decrease in clonogenic survival” value with B16/F1 melanoma cells amounted to 62%.

The values are drawn from patent US9005575B2, “Arg-Gly-Asp-conjugated alpha-melanocyte stimulating hormone hybrid peptide for use in diagnosing and treating melanoma, including metastatic melanoma and methods related to same” (STC.UNM, priority 2009, dated 2015).
